By Dmax is commonly meant the greatest extent of degradation seen. As a reminder, the DC50 is the concentration giving 50% degradation.

The values below come from patent publication US12139492B2 (Endotarget Inc., priority 2021, dated 2024).

Where two headings read alike, the source gives them in different places.

One assay concerns Mino cells. The assay is described as follows: Antiproliferative effect, MTS cell viability assay, Mino cells. In kind it is cell-based. Particulars: Homo sapiens, MINO, Mino mantle cell lymphoma cells; read-out: IC50 (anti-proliferation) Mino cells. An outline of the steps: (§1)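 Readout was MTS-derived formazan absorbance (490 nm) reflecting metabolically active cells. Treatment lasted 72 h over a 0–10 μM range (0.001, 0.01, 0.1, 1, 10 μM) in JeKo-1 and Mino B-cell malignancy cells.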

In the next assay the target is BTK (Homo sapiens, UniProt Q06187). Kind of assay: Degradation of BTK protein in Namalwa cells (Western blot; DC50, Dmax). The settings on record: for DC50: cell line not given; for degradation of BTK protein: Namalwa B lymphocyte cells, various concentrations, 24 hours, Western blot. On the technique in general: In western blotting, separated proteins are transferred to a membrane and probed.

Another assay has as its system JeKo-1 cells. The assay is described as follows: Antiproliferative effect, MTS cell viability assay, JeKo-1 cells. In kind it is cell-based. Particulars: Homo sapiens; JeKo-1 mantle cell lymphoma cells; read-out: IC50 (anti-proliferation) JeKO-1 cells. The method in brief:
as §1
A general note: Formazan colour is commonly taken as a measure of viable cells.

The mark [1] stands for this setting: read-out: Dmax (BTK degradation).
The mark [2] stands for this setting: read-out: DC50 (BTK degradation), concentration giving 50% reduction of BTK expression level.

Chain of BTK (Q06187 whole entry): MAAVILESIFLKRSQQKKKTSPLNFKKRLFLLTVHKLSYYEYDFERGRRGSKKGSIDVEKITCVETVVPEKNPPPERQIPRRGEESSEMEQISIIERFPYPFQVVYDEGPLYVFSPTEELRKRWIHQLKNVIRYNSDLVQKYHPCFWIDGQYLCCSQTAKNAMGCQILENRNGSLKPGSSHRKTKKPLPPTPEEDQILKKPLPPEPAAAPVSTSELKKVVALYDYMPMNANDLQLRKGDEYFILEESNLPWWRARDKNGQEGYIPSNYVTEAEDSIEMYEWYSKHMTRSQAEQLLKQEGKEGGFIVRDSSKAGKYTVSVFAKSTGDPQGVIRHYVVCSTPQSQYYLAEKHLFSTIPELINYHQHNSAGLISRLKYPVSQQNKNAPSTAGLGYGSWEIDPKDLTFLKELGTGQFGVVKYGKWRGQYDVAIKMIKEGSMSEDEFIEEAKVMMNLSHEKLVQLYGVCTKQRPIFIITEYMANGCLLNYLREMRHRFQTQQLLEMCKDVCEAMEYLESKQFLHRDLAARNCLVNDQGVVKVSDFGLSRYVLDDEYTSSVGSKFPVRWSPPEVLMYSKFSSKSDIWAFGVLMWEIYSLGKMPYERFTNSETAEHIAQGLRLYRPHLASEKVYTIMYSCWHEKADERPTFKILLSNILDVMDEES

On to `Nc1ncnc2c1c(-c1ccc(Oc3ccccc3)cc1)nn2C1CCN(C2CCN(C(=O)N3CCC(CCCC4CCN(c5ccc6c(c5)C(=O)N(C5CCC(=O)NC5=O)C6=O)CC4)CC3)CC2)CC1` (stereo not shown) [Compound 265, 5-(4-(3-(1-(4-(4-amino-3-(4-phenoxyphenyl)-1H-pyrazolo[3,4-d]pyrimidin-1-yl)-[1,4′-bipiperidine]-1′-carbonyl)piperidin-4-yl)propyl)piperidin-1-yl)-2-(2,6-dioxopiperidin-3-yl)isoindoline-1,3-dione], for which the IC50 with Mino cells and with JeKo-1 cells was 1000 to 10000 nM in each case. The Dmax on BTK is above 75%. The DC50 at BTK (BTK degradation) lay within 10 to 50 nM.

Turning to `NC(=O)c1c(-c2ccc(Oc3ccccc3)cc2)nn2c1NCC[C@H]2C1CCN(C2CCN(C(=O)N3CCC(C4CCN(c5ccc6c(c5)C(=O)N(C5CCC(=O)NC5=O)C6=O)CC4)CC3)CC2)CC1` (stereo partly drawn) [Compound 383, (7S)-7-(1′-(1′-(2-(2,6-dioxopiperidin-3-yl)-1,3-dioxoisoindolin-5-yl)-[4,4′-bipiperidine]-1-carbonyl)-[1,4′-bipiperidin]-4-yl)-2-(4-phenoxyphenyl)-4,5,6,7-tetrahydropyrazolo[1,5-a]pyrimidine-3-carboxamide], the IC50 in the assay on Mino cells and in the assay on JeKo-1 cells was below 1000 nM each time. At BTK, this molecule displayed a Dmax above 90%. Besides, the half-maximal degradation concentration (DC50) at BTK (BTK degradation) lay within 10 to 50 nM.

Regarding `Nc1ncnc2c1c(-c1ccc(Oc3ccccc3)cc1)nn2C1CCN(CC2CN(CC3CN(c4ccc5c(c4)C(=O)N(C4CCC(=O)NC4=O)C5=O)C3)C2)CC1` (stereo not shown) [Compound 441, 5-(3-((3-((4-(4-amino-3-(4-phenoxyphenyl)-1H-pyrazolo(3,4-d)pyrimidin-1-yl)piperidin-1-yl)methyl)azetidin-1-yl)methyl)azetidin-1-yl)-2-(2,6-dioxopiperidin-3-yl)isoindoline-1,3-dione], the IC50 in the assay with Mino cells and in the assay on JeKo-1 cells was above 10000 nM in each case. Moreover, the “degradation of BTK protein” value on BTK is “dose-dependent degradation”. Moreover, at BTK (setting [1]), the Dmax is below 50%.

For the molecule `Nc1ncnc2c1c(-c1ccc(Oc3ccccc3)cc1)nn2C1CCN(C2CCN(CCN3CCC(c4ccc5c(c4)CN(C4CCC(=O)NC4=O)C5=O)CC3)CC2)CC1` (stereo not shown) [Compound 220, 3-(5-(1-(2-(4-(4-amino-3-(4-phenoxyphenyl)-1H-pyrazolo[3,4-d]pyrimidin-1-yl)-[1,4′-bipiperidin]-1′-yl)ethyl)piperidin-4-yl)-1-oxoisoindolin-2-yl)piperidine-2,6-dione], the IC50 with Mino cells and in the assay with JeKo-1 cells was 1000 to 10000 nM throughout. This molecule also came in with a Dmax at BTK above 75%. For the same molecule, the DC50 on BTK (BTK degradation) is 10 to 50 nM.

Turning to `Nc1ncnc2c1c(-c1ccc(Oc3ccccc3)cc1)nn2[C@@H]1CCCN(C2CCN(C(=O)N3CC(N4CCN(c5ccc6c(c5)CN(C5CCC(=O)NC5=O)C6=O)CC4)C3)CC2)C1` (stereo partly drawn) [Compound 476, 3-(5-(4-(1-((R)-3-(4-amino-3-(4-phenoxyphenyl)-1H-pyrazolo[3,4-d]pyrimidin-1-yl)-[1,4′-bipiperidine]-1′-carbonyl)azetidin-3-yl)piperazin-1-yl)-1-oxoisoindolin-2-yl)piperidine-2,6-dione], the IC50 in the assay with Mino cells and in the assay with JeKo-1 cells was below 1000 nM in each case. The “degradation of BTK protein” value on BTK is given as “dose-dependent degradation”. For the same molecule, the half-maximal degradation concentration (DC50) at BTK (setting [2]) was below 10 nM. In addition, at BTK (setting [1]), the Dmax is above 90%.

Take `Nc1ncnc2c1c(-c1ccc(Oc3ccccc3)cc1)nn2C1CCN(CC2CC(N3CCN(c4ccc5c(c4)C(=O)N(C4CCC(=O)NC4=O)C5=O)CC3)C2)CC1` (stereo not shown) [Compound 530, 5-(4-(3-((4-(4-amino-3-(4-phenoxyphenyl)-1H-pyrazolo[3,4-d]pyrimidin-1-yl)piperidin-1-yl)methyl)cyclobutyl)piperazin-1-yl)-2-(2,6-dioxopiperidin-3-yl)isoindoline-1,3-dione]: the IC50 with Mino cells and with JeKo-1 cells was below 1000 nM throughout. The DC50 at BTK (setting [2]) was below 10 nM. Also, at BTK (setting [1]), the Dmax is above 90%.

Take `NC(=O)c1c(-c2ccc(Oc3ccccc3)cc2)nn2c1NCC[C@H]2C1CCN(C(=O)N2CCN(CCC3CCN(c4ccc5c(c4)CN(C4CCC(=O)NC4=O)C5=O)CC3)CC2)CC1` (stereo partly drawn) [Compound 300, (7S)-7-(1-(4-(2-(1-(2-(2,6-dioxopiperidin-3-yl)-1-oxoisoindolin-5-yl)piperidin-4-yl)ethyl)piperazine-1-carbonyl)piperidin-4-yl)-2-(4-phenoxyphenyl)-4,5,6,7-tetrahydropyrazolo[1,5-a]pyrimidine-3-carboxamide]: the IC50 in the assay on Mino cells and with JeKo-1 cells was 1000 to 10000 nM each time. For the same molecule, the greatest degradation seen (Dmax) on BTK was above 75%. For the same molecule, at BTK (BTK degradation), the DC50 fell in the range of 10 to 50 nM.

For `NC(=O)c1c(-c2ccc(Oc3ccccc3)cc2)nn2c1NCCC2C1CCN(C2CCN(C(=O)N3CCN(C4CCN(c5ccc6c(c5)C(=O)N(C5CCC(=O)NC5=O)C6=O)CC4)CC3)CC2)CC1` (stereo not shown) [Compound 345, 7-(1′-(4-(1-(2-(2,6-dioxopiperidin-3-yl)-1,3-dioxoisoindolin-5-yl)piperidin-4-yl)piperazine-1-carbonyl)-[1,4′-bipiperidin]-4-yl)-2-(4-phenoxyphenyl)-4,5,6,7-tetrahydropyrazolo[1,5-a]pyrimidine-3-carboxamide], the IC50 in the assay on Mino cells and in the assay with JeKo-1 cells was 1000 to 10000 nM throughout. The molecule also yielded a Dmax at BTK above 90%. The DC50 at BTK (BTK degradation) is below 10 nM.

With `Nc1ncnc2c1c(-c1ccc(Oc3ccccc3)cc1)nn2C1CCN(CCCN2CCC(CN3CCC(c4ccc5c(c4)oc(=O)n5C4CCC(=O)NC4=O)CC3)CC2)CC1` (stereo not shown) [Compound 546, 3-(6-(1-((1-(3-(4-(4-amino-3-(4-phenoxyphenyl)-1H-pyrazolo[3,4-d]pyrimidin-1-yl)piperidin-1-yl)propyl)piperidin-4-yl)methyl)piperidin-4-yl)-2-oxobenzo[d]oxazol-3(2H)-yl)piperidine-2,6-dione], the IC50 in the assay with Mino cells was 1000 to 10000 nM; in the assay on JeKo-1 cells it was below 1000 nM. Further, on BTK (setting [2]), the DC50 is below 10 nM. Also, the greatest degradation seen (Dmax) at BTK (setting [1]) was above 90%.

As for `Nc1ncnc2c1c(-c1ccc(Oc3ccccc3)cc1)nn2C1CCN(C2CCN(C(=O)N3CCC(CCN4CCC(c5ccc6c(c5)C(=O)N(C5CCC(=O)NC5=O)C6=O)CC4)CC3)CC2)CC1` (stereo not shown) [Compound 253, 5-(1-(2-(1-(4-(4-amino-3-(4-phenoxyphenyl)-1H-pyrazolo[3,4-d]pyrimidin-1-yl)-[1,4′-bipiperidine]-1′-carbonyl)piperidin-4-yl)ethyl)piperidin-4-yl)-2-(2,6-dioxopiperidin-3-yl)isoindoline-1,3-dione], the IC50 in the assay on Mino cells and in the assay with JeKo-1 cells was 1000 to 10000 nM in each case. The same molecule returned a Dmax at BTK above 90%. The molecule further gave a DC50 at BTK (BTK degradation) of 10 to 50 nM.

On to `NC1=NC=NC2C1C(c1ccc(Oc3ccccc3)cc1)=NN2[C@@H]1CCCN(C(=O)N2CCN(C3CN(c4ccc5c(c4)CN(C4CCC(=O)NC4=O)C5=O)C3)CC2)C1` (stereo partly drawn) [Compound 506, 3-(5-(3-(4-((3R)-3-(4-amino-3-(4-phenoxyphenyl)-3a,7a-dihydro-1H-pyrazolo[3,4-d]pyrimidin-1-yl)piperidine-1-carbonyl)piperazin-1-yl)azetidin-1-yl)-1-oxoisoindolin-2-yl)piperidine-2,6-dione], for which the IC50 in the assay on Mino cells and in the assay on JeKo-1 cells was below 1000 nM each time. In addition, at BTK (setting [2]), the DC50 lay in the range of 10 to 50 nM. The Dmax at BTK (setting [1]) was above 90%.

Regarding `NC(=O)c1c(-c2ccc(Oc3ccccc3)cc2)nn2c1NCC[C@H]2C1CCN(C2CCN(C(=O)N3CCN(CC4CCN(c5ccc6c(c5)CN(C5CCC(=O)NC5=O)C6=O)CC4)CC3)CC2)CC1` (stereo partly drawn) [Compound 392, (7S)-7-(1′-(4-((1-(2-(2,6-dioxopiperidin-3-yl)-1-oxoisoindolin-5-yl)piperidin-4-yl)methyl)piperazine-1-carbonyl)-[1,4′-bipiperidin]-4-yl)-2-(4-phenoxyphenyl)-4,5,6,7-tetrahydropyrazolo[1,5-a]pyrimidine-3-carboxamide], the figures for the IC50 in the assay on Mino cells and in the assay with JeKo-1 cells were below 1000 nM and 1000 to 10000 nM, respectively. This molecule came in with a Dmax at BTK above 90%. This molecule gave a DC50 on BTK (BTK degradation) of 10 to 50 nM.

`Nc1ncnc2c1c(-c1ccc(Oc3ccccc3)cc1)nn2[C@@H]1CCCN(C2CCN(CC3CCN(c4ccc(C(=O)NC5CCC(=O)NC5=O)cc4)CC3)CC2)C1` (stereo partly drawn) [Compound 516, 4-(4-(((R)-3-(4-amino-3-(4-phenoxyphenyl)-1H-pyrazolo[3,4-d]pyrimidin-1-yl)-[1,4′-bipiperidin]-1′-yl)methyl)piperidin-1-yl)-N-(2,6-dioxopiperidin-3-yl)benzamide]: the IC50 with Mino cells was 1000 to 10000 nM; in the assay with JeKo-1 cells it was below 1000 nM. Also, on BTK (setting [2]), the DC50 was below 10 nM. On BTK (setting [1]), the Dmax is above 75%.

Consider `Nc1ncnc2c1c(-c1ccc(Oc3ccccc3)cc1)nn2[C@@H]1CCCN(CC2CCN(C(=O)NC3CCC(=O)NC3=O)CC2)C1` (stereo partly drawn) [Compound 518, 4-(((R)-3-(4-amino-3-(4-phenoxyphenyl)-1H-pyrazolo[3,4-d]pyrimidin-1-yl)piperidin-1-yl)methyl)-N-(2,6-dioxopiperidin-3-yl)piperidine-1-carboxamide], for which the IC50 with Mino cells and with JeKo-1 cells was 1000 to 10000 nM in each case. Moreover, the DC50 at BTK (setting [2]) was above 50 nM. The Dmax at BTK (setting [1]) is above 75%.

As to `Nc1ncnc2c1c(-c1ccc(Oc3ccccc3)cc1)nn2C1CCN(CC2CCN(CCCC3CCN(c4ccc5c(c4)CN(C4CCC(=O)NC4=O)C5=O)CC3)CC2)CC1` (stereo not shown) [Compound 212, 3-(5-(4-(3-(4-((4-(4-amino-3-(4-phenoxyphenyl)-1H-pyrazolo[3,4-d]pyrimidin-1-yl)piperidin-1-yl)methyl)piperidin-1-yl)propyl)piperidin-1-yl)-1-oxoisoindolin-2-yl)piperidine-2,6-dione], the IC50 is 1000 to 10000 nM with Mino cells and above 10000 nM in the assay on JeKo-1 cells. This molecule came in with a Dmax at BTK above 90%. Also, at BTK (BTK degradation), the DC50 fell in the range of 10 to 50 nM.
